In PMC4506520, “Aneuploidy generates proteotoxic stress and DNA damage concurrently with p53-mediated post-mitotic apoptosis in SAC-impaired cells” (Nature Communications, 2015):

Molecular target: T1, CENP-E (Homo sapiens, UniProt Q02224)
T1 construct: gene CENPE; motor domain
T1 sequence (Q02224 6-329 limits assumed): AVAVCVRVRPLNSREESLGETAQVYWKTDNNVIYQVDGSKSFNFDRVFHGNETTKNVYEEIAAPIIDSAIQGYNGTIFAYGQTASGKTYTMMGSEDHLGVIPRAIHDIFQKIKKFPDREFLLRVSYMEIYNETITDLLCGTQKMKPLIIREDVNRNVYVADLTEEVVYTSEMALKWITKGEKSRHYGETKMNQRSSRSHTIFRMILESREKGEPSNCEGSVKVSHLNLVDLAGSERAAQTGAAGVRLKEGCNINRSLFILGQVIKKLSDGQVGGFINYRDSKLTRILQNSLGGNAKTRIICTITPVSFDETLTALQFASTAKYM
Experiment: ATPase activity assay of the CENP-E motor domain
Assay type: biochemical

COc1cccc2nc(C(=O)N(CCN(C)C)C3CS(=O)(=O)c4c3ccc(C(F)(F)F)c4C#N)c(-c3ccc(F)c(C)c3)n12 (single isomer, unassigned; (+)) [Cmpd-A, (+)-N-[7-cyano-1,1-dioxido-6-(trifluoromethyl)-2,3-dihydro-1-benzothiophen-3-yl]-N-[2-(dimethylamino)ethyl]-3-(4-fluoro-3-methylphenyl)-5-methoxyimidazo[1,2-a]pyridine-2-carboxamide]
IC50: 2.2 nM
